The source of these data is patent US7179821B2, “Method of treating of demyelinating diseases or conditions” (Aventis Pharmaceuticals Inc., priority 2001, dated 2007).

“And” between values parts separate entries of the source, which are not always exact repeats. Equal values may be shown once. Marks after values point to notes of the source that are not given here.

The subject of data set [1] is RuR-induced flaccid paralysis. Briefly: Antagonism of ruthenium red (RuR)-induced flaccid paralysis, flagpole test. The settings on record: for antagonism of the flaccid paralysis induced by ip RuR (conclusion): doses of Table 3. The data set is classed as in vivo, mouse. The protocol:
Method and Results: Groups of 4–5 mice (CD-1; Charles River; 25–35 grams) were separately but simultaneously injected ip with ruthenium red and vehicle (1% glacial acetic acid), ruthenium red and 4-AP, or ruthenium red and HP 184. The compound known as “8183” was also tested in this paradigm. Starting at 15 minutes after injections, mice were placed near a “flagpole” apparatus and their ability to support their own body weight (ie, to hold on to the flagpole and not fall) was recorded. Results were recorded as the number of mice that could support their own body weight versus the total number of mice tested. All experiments were performed between 2PM and 4:30PM.

Data set [2] deals with long-standing (25 days) spinal cord injury of minor intensity. Briefly: Chronic crush experiment, 25-day old mild compression injury (1.6 mm), OFT score. The data set is classed as in vivo, rat. An excerpt: Normal spinal cord diameter is approximately 2.5 mm. This compression represents a moderate injury characterized by initial open field walking scores of 1.5–2.5 in the Open Field Walking Scale. […] The spinal cords of female rats were exposed to laminectomy or crush to a diameter of 1.6 mm. This represented a minor injury, and was designed to result in OFT scores of 4.0 after 25 days of no treatment. […] In this experiment, OFT scores were slightly higher (4.3–4.5), leaving only a small window for improvement. […] Consistent improvement was also observed after once a day ip 0.6 mg/kg 4-AP as well. The statistical differences were based upon the changes for each individual rat (each rat was its own control) using Mann-Whitney U-test. All the behavioral tests on day1, day2 and day3 were performed at 3 hours after gavage. There was no drug given on day3 (first day started to give drug was day 0).

Data set [3] concerns moderate chronic (35 days post-injury) spinal cord crush. Description: Long standing moderate spinal cord crush (35 days), OFT score. The data set is classed as in vivo, rat. An excerpt:
A tabular representation of the results from both chronic spinal cord injury studies (drugs first administered 25 days after a mild spinal cord crush and 35 days after a moderate spinal cord crush) are shown in Table 5.
One hundred fifty adult female Wistar rats, 250–300 g weight, obtained from Charles River were housed in the McMaster University Health Sciences Centre (HSC) Central Animal Facilities (CAF) for at least one week. During that time they were exposed to the performance tests described below, to ensure they were familiar with them. Rats were handled daily for 2 weeks prior to surgery.
Rats were anesthetized using isoflurane (3–5%): O2 (1 L/min) in an appropriately equipped surgical suite in the CAF. Temgesic (0.03 mg/kg body weight, subcutaneously (SQ)) was administered prior to surgery for pain relief. Spinal cords were crushed (compressed) with a 3.5 mm wide modified coverslip forceps (Blight 1991, procedure revised by Rathbone laboratory). The forceps were closed to 1.4 mm for 15 sec, which produced injury level equivalent to the mid-level (moderate) outcome on the Gruner scale (1996). The compression injury was otherwise performed according to the procedure described by Blight (1991).
Changes in locomotor behaviour and segmental reflexes were assessed up to 5 weeks post injury. Animals were tested in an open field walking task, hind limb placement and foot orientation. The animals were evaluated on days 2, 7, 14, 21, 28 and 35 after surgery. By 35 days after surgery, almost no further spontaneous recovery occurs. Therefore treatment began on day 35.
HP184 was dissolved in sterilized (autoclaved) deionized reverse-osmosis water acidified with glacial acetic acid (0.1 ml acid per 10 ml of water). 4-AP (Sigma, molecular weight 94.12; Jankowska E. et al., 1982; Gruner et al., 1999) was dissolved in physiological saline (0.6 mg/kg b.w.) and was administered by i.p. injection. One group of rats (vehicle control-1) received by oral gavage vehicle. Behaviourial testing was done immediately prior to receiving the gavage and at 3 hours thereafter. Then, the rats were scarified on day 35. All the other rats received either HP184 by oral gavage (0.3, 1, or 3 mg/kg bw depending on the group) or 4-AP (0.6 mg/kg, i.p.) or vehicle (vehicle control-2) once a day on the 35 to 42 days after surgery. On these days behaviourial tests were done immediately prior to receiving the gavage at 3 and 24 hours thereafter. Then, the rats were perfused on day 43 after the last behaviourial testing.
Statistical analyses were performed on a Macintosh computer using GB-Stat ppc 6.5.2. The behavioral scores were analyzed by the Kruskal-Wallis nonparametric analysis of variance (ANOVA). Post hoc comparisons were made using Mann-Whitney U tests.

Data set [4] concerns demyelinated area at the moderate compression injury site. Briefly: Histological study of spinal cords, demyelinated area (luxol fast blue). The data set is classed as in vivo, rat. The settings on record: HP184 0.3, 1 or 3 mg/kg po or 4-AP 0.6 mg/kg ip, days 35–42 after moderate crush. The protocol:
A study to test whether the treatment with HP184 affected the amount of myelin in rats with moderate long term spinal cord crush injury when administered long after spinal cord injury.
The spinal cords from rats described above in the assessment were used for this study.
(50–60 mg/kg body weight, i.p.) and perfused transcardically—first with 100 mL 0.05M phosphate buffed saline (PBS) containing 0.1% heparin, followed by 300–500 mL of 4% paraformaldehyde (PFA). Segments T9 to L1 of the spinal cords were taken out, then cryo-protected in 30% sucrose solution and frozen at −70° C. in 10.24% polyvinyl alcohol and 4.26% polyethylene glycol.
A segment of each cord including the lesion site plus 10 mm rostral and caudal to the lesion site was embedded in Tissue Tek medium. Serial sections were cut longitudinally at 20 μm intervals on a cryostat. Every third section was stained with luxol fast blue for myelin. The evaluation was performed by observers blinded as to treatment, on coded slides. Sections were examined under a light microscope for the extent of demyelination (the area without luxol fast blue staining).
For determinations of the maximal demyelinated area of the cord, the whole section was digitized on photographs using a Zeiss microscope. The extent of demyelination was measured at the lesion center using a computerized Bioquant BQ-TCW98 image analysis progrem by an investigator who was blind to treatment group.
Statistical analysis was performed on a Macintosh computer using GB-Stat ppc 6.5.2. The histological results were analyzed by the Kruskal-Wallis nonparametric analysis of variance (ANOVA). Post hoc comparisons were made using Mann-Whitney U tests.

A further data set deals with SCI and MS patients. The settings on record: cited from earlier work.
[5] abbreviates: 30 mg/kg ip with RuR 30 mg/kg ip, 15 min.
[6] abbreviates: 30 mg/kg ip with RuR 30 mg/kg ip, 30 min.
The mark [7] stands for this setting: 30 mg/kg ip with RuR 30 mg/kg ip, 45 min.
Setting [8] is: 100 mg/kg ip with RuR 30 mg/kg ip, 15 min.
Where [9] appears, read: 100 mg/kg ip with RuR 30 mg/kg ip, 30 min.
Setting [10] is: 100 mg/kg ip with RuR 30 mg/kg ip, 45 min.
Setting [11] is: 0.3 mg/kg ip with RuR 30 mg/kg ip, 15 min.
Where [12] appears, read: 0.3 mg/kg ip with RuR 30 mg/kg ip, 30 min.
Setting [13] is: 0.3 mg/kg ip with RuR 30 mg/kg ip, 45 min.
Setting [14] is: 0.6 mg/kg ip with RuR 30 mg/kg ip, 15 min.
[15] abbreviates: 0.6 mg/kg ip with RuR 30 mg/kg ip, 30 min.
Setting [16] is: 0.6 mg/kg ip with RuR 30 mg/kg ip, 45 min.
Where [17] appears, read: 10 mg/kg ip with RuR 30 mg/kg ip, 15 min.
Setting [18] is: 10 mg/kg ip with RuR 30 mg/kg ip, 30 min.
Where [19] appears, read: 10 mg/kg ip with RuR 30 mg/kg ip, 45 min.

In the case of `Cc1cn(Nc2ccncc2F)c2ccccc12` [compound 8183], the figures for the “% of mice that could support their own body weight” value in data set [1] (setting [5]), in data set [1] (setting [6]) and in data set [1] (setting [7]) were “(92.8%)”, “(92.8%)” and “(100%)”, respectively. Moreover, the “number of mice that could support their own body weight versus total tested” value is given as 13 out of 14 in data set [1] (setting [5]), 13 out of 14 in data set [1] (setting [6]) and 14 out of 14 in data set [1] (setting [7]).
diphenylhydaintoin [DPH]: the “% of mice that could support their own body weight” value in data set [1] (setting [5]) is listed as “(26.7%)”; in data set [1] (setting [6]), “(20%)”; in data set [1] (setting [7]) it was “(26.7%)”; in data set [1] (setting [8]), “(55%)”; in data set [1] (setting [9]), “(50%)”; in data set [1] (setting [10]), “(50%)”. The “number of mice that could support their own body weight versus total tested” value in data set [1] (setting [5]) is given as 4 out of 15; in data set [1] (setting [6]), 3 out of 15; in data set [1] (setting [7]), 4 out of 15; in data set [1] (setting [8]) it was 11 out of 20; in data set [1] (setting [9]) it was 10 out of 20; in data set [1] (setting [10]) it was 10 out of 20. Also, the “antagonism of the flaccid paralysis induced by ip RuR (conclusion)” value (from here on “antagonism”) in data set [1] is on record as “lack of effect”.
Turning to `Nc1ccncc1` [4-AP, 4-amino pyridine], the “% of mice that could support their own body weight” value in data set [1] (setting [11]) was “(88%)”; in data set [1] (setting [12]) it was “(52%)”; in data set [1] (setting [13]) it was “(48%)”; in data set [1] (setting [14]) it was “(85.7%)”; in data set [1] (setting [15]) it was “(57.1)”; in data set [1] (setting [16]), “(57.1%)”. Moreover, the “number of mice that could support their own body weight versus total tested” value in data set [1] (setting [11]) is on record as 22 out of 25; in data set [1] (setting [12]) it was 13 out of 25; in data set [1] (setting [13]) it was 12 out of 25; in data set [1] (setting [14]), 12 out of 14; in data set [1] (setting [15]), 8 out of 14; in data set [1] (setting [16]), 8 out of 14. The “antagonism” value in data set [1] is recorded as “can antagonize the flaccid paralysis”. The “OFT improvement compared to vehicle control (Mann-Whitney U-test)” value in data set [2] (0.6 mg/kg ip once a day, p=0.0027) was “significant improvement at 90 min to 3 h and 12 h to day 2”. Moreover, in data set [2] (0.6 mg/kg ip once a day, three consecutive daily doses), the “OFT score 3 hours after last dose (Day 28, mild)” value is 4.53 ± 0.02 and 4.53 ± .023. Also, the “% possible improvement (highest score = 5), mild” value in data set [2] (0.6 mpk ip) came to 17.5%*. Further, the “Delta of OFT score, Day 25 to Day 28 (mild)” value in data set [2] (0.6 mpk ip) is given as “.10”. Also, the “OFT score prior to dose (Day 25, mild)” value in data set [2] (group 0.6 mg/kg ip, baseline before dosing) was 4.43 ± 0.03 and 4.43 ± .030. Besides, the “motor recovery, Open Field Walking Test” value in data set [3] (0.6 mg/kg ip, thirty-five days after moderate injury) is recorded as “similarly effective”. In data set [3] (0.6 mpk ip), the “% possible improvement, moderate” value is 22.1%*. Further, the “Delta of OFT score, Day 35 to Day 39 (moderate)” value in data set [3] (0.6 mpk ip) is given as “.22”. Also, the “OFT score Day 39 (moderate) 3 hrs after last dose” value in data set [3] (0.6 mpk ip daily) was 4.17 ± .047. Besides, in data set [3] (HP184 0.3, 1 or 3 mg/kg po or 4-AP 0.6 mg/kg ip once a day, days 35–42, treatment effect p<0.01), the “open field locomotor ability (mean OFT scores) vs vehicle, FIGS. 6a and 6b” value is recorded as “significantly different from that of control animals receiving vehicle”. Besides, the “OFT score Day 35 (moderate) prior” value in data set [3] (group 0.6 mpk ip, baseline before dosing) is 3.95 ± .084. In addition, the “myelinated / demyelinated area at the crush center, FIG. 7” value in data set [4] is on record as “significantly greater myelinated area than that of saline controls”. In the data set on SCI and MS patients (Ball et al, 1979, Bever et al, 1994), the “doses at which restlessness, confusion and generalized tonic-clonic seizures have been reported” value was “higher than 0.8 mg/kg”. In addition, in the data set on SCI and MS patients (MS patients, oral administration (Van Diemen et al, 1993)), the “serum level necessary for significant improvement” value is 33 to 75 ng/mL. Besides, in the data set on SCI and MS patients (human study (Bever et al, 1994)), the “serum level at which a grand mal seizure was reported” value is 104 ng/mL.
Regarding `Nc1nc2ccc(OC(F)(F)F)cc2s1` [RIL, riluzole], the “% of mice that could support their own body weight” value in data set [1] (setting [17]) is reported as “(60%)”; in data set [1] (setting [18]) it was “(26.7%)”; in data set [1] (setting [19]) it was “(26.7%)”. The “number of mice that could support their own body weight versus total tested” value is on record as 9 out of 15 in data set [1] (setting [17]), 4 out of 15 in data set [1] (setting [18]) and 4 out of 15 in data set [1] (setting [19]). The “antagonism” value in data set [1] was “lack of effect”.
